Tests used:
Test in all cases: relative viability (nuclei count vs DMSO), 5 days (fraction); higher = more cells survive
BGJ398 + Phenformin = compound: CCN1CCN(c2ccc(Nc3cc(N(C)C(=O)Nc4c(Cl)c(OC)cc(OC)c4Cl)ncn3)cc2)CC1 [BGJ398] + N=C(N)NC(=N)NCCc1ccccc1 [Phenformin] (partner 250 µM)
Summary of the method: (§1)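 Medians of duplicate plates are given as relative viability. That measure is the nuclei count in treated wells divided by the count in vehicle wells. Counts were taken on 4× images of lung cancer cell lines in 1536-well plates, 5 days after pin-tool dosing the day after seeding with one drug alone or a fixed anchor-drug dose plus five library-drug doses (not always all listed) in √10 steps.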

[1] = compound: C1=CC2=NC=CN=C2C=C1/C=C/3\C(=O)NC(=O)S3 + O=C(CCCCCCC(=O)Nc1ccccc1)NO [Vorinostat] (partner 1 µM)
Summary of the method: as §1

[2] = compound: C1=CC2=NC=CN=C2C=C1/C=C/3\C(=O)NC(=O)S3 + CC(C)C[C@H](NC(=O)[C@H](Cc1ccccc1)NC(=O)c1cnccn1)B(O)O [Bortezomib] (partner 0.002 µM)
Summary of the method: as §1

BGJ398 + AZD7762 = compound: CCN1CCN(c2ccc(Nc3cc(N(C)C(=O)Nc4c(Cl)c(OC)cc(OC)c4Cl)ncn3)cc2)CC1 [BGJ398] + NC(=O)Nc1cc(-c2cccc(F)c2)sc1C(=O)N[C@H]1CCCNC1 [AZD7762] (partner 0.2 µM)
Summary of the method: as §1

Cell Line	relative viability (BGJ398 + Phenformin; first compound 0.01 µM)	relative viability (BGJ398 + Phenformin; first compound 0.03162 µM)	relative viability (BGJ398 + Phenformin; first compound 0.1 µM)	relative viability (BGJ398 + Phenformin; first compound 0.3162 µM)	relative viability (BGJ398 + Phenformin; first compound 1 µM)	relative viability ([1]; first compound 0.02 µM)	relative viability ([1]; first compound 0.06325 µM)	relative viability ([1]; first compound 0.2 µM)	relative viability ([1]; first compound 0.6325 µM)	relative viability ([1]; first compound 2 µM)	relative viability ([2]; first compound 0.02 µM)	relative viability ([2]; first compound 0.06325 µM)	relative viability ([2]; first compound 0.2 µM)	relative viability ([2]; first compound 0.6325 µM)	relative viability ([2]; first compound 2 µM)	relative viability (BGJ398 + AZD7762; first compound 0.01 µM)	relative viability (BGJ398 + AZD7762; first compound 0.03162 µM)	relative viability (BGJ398 + AZD7762; first compound 0.1 µM)	relative viability (BGJ398 + AZD7762; first compound 0.3162 µM)	relative viability (BGJ398 + AZD7762; first compound 1 µM)
NCI-H1623	0.641	0.427	0.619	0.548	0.497	–	–	–	–	–	–	–	–	–	–	–	–	–	–	–
NCI-H1650	0.369	–	0.399	0.187	0.365	0.572	0.556	0.589	0.525	0.512	0.207	0.173	0.219	0.201	0.213	–	–	–	–	–
NCI-H1395	0.436	0.433	0.368	0.393	0.373	1	0.733	0.824	0.77	0.668	–	–	–	–	–	0.372	0.366	0.355	0.352	0.352
NCI-H1563	0.638	0.67	0.595	0.514	0.512	–	–	–	–	–	0.828	0.788	0.871	0.753	0.715	–	–	–	–	–
LK-2	0.268	0.295	0.255	0.18	0.271	0.245	0.353	0.37	0.213	0.169	–	–	–	–	–	0.296	0.329	0.16	0.165	0.13
COR-L23	0.42	0.441	0.5	0.397	0.391	0.39	0.486	0.471	0.408	0.345	0.906	0.947	0.972	0.95	0.941	–	–	–	–	–
SW 900	0.639	0.702	0.559	0.196	0.279	0.544	0.517	0.453	–	0.647	–	–	–	–	–	0.757	0.514	0.572	0.36	0.532
NCI-H1648	–	–	–	–	–	0.435	0.357	0.424	–	0.423	–	–	–	–	–	0.873	–	0.759	0.55	0.387
A549	0.12	0.217	0.154	0.125	0.11	–	–	–	–	–	–	–	–	–	–	–	–	–	–	–
SK-LU-1	0.5	0.556	0.58	0.367	0.491	0.809	0.818	0.881	0.777	0.72	1.37	1.32	1.44	1.29	0.783	–	–	–	–	–
COR-L 105	0.425	0.377	0.525	0.556	0.448	0.694	0.872	0.697	0.605	0.835	0.717	0.887	0.864	0.759	0.755	–	–	–	–	–
Calu-6	–	–	–	–	–	–	–	–	–	–	1.03	1.1	1.22	1.1	0.98	–	–	–	–	–
NCI-H358	0.29	0.296	0.395	0.317	0.462	0.674	0.714	0.725	0.659	0.579	–	–	–	–	–	–	0.473	0.591	0.507	0.725
NCI-H1944	0.198	0.195	0.237	0.188	0.177	0.515	0.511	0.551	0.536	0.512	–	–	–	–	–	0.561	0.536	0.484	0.439	0.516
EBC-1	–	–	–	–	–	–	–	–	–	–	0.538	0.648	0.587	0.546	0.816	–	–	–	–	–
NCI-H1299	–	–	–	–	–	–	–	–	–	–	1.04	1.04	1.04	1.03	1.06	–	–	–	–	–
NCI-H2228	0.328	0.32	0.243	0.299	0.28	0.844	0.821	0.616	0.572	0.719	0.948	0.881	1.23	1.06	0.82	–	–	–	–	–
IA-LM	–	–	–	–	–	0.884	0.467	0.964	0.985	0.968	0.654	0.918	0.865	0.788	0.728	–	–	–	–	–
SK-MES-1	0.584	0.691	0.677	0.589	0.593	0.925	0.998	1.08	1.08	0.829	–	–	–	–	–	–	–	–	–	–
SW 1573	0.312	0.456	0.405	0.407	0.368	0.519	1.09	0.658	0.868	0.444	0.996	1.21	1.17	0.835	0.95	–	–	–	–	–
NCI-H661	0.286	0.316	0.295	0.302	0.291	0.75	0.86	0.845	0.799	0.948	0.925	0.614	0.812	0.751	0.95	–	–	–	–	–
NCI-H520	0.532	0.481	0.379	0.189	0.242	0.879	0.834	0.645	0.802	0.677	0.793	0.632	0.538	0.489	0.657	–	–	–	–	–
NCI-H2023	0.409	0.483	0.434	0.398	0.371	0.675	0.51	0.739	0.632	0.441	0.924	0.923	1.03	0.875	0.645	–	–	–	–	–
NCI-H2009	0.454	0.511	0.437	0.374	0.45	0.659	0.716	0.714	0.685	0.703	0.954	1.07	1.11	0.969	0.801	–	–	–	–	–
